Tests used:
[1] = target: T1, pyrene-conjugated actin (Oryctolagus cuniculus, UniProt P68135); assay: Pyrene actin polymerization assay; type: biochemical
T1 construct: purchased Cytoskeleton, Denver, Colo
Experimental: An actin polymerization kit was used to assess the direct actin-binding activity of each analogue at two concentrations: 100 nM and 1 μM. This kit is based on the enhanced fluorescence of pyrene-conjugated actin that occurs during polymerization. When pyrene-G-actin (monomer) forms pyrene-F-actin, fluorescence is enhanced. The enhanced fluorescence is used to follow polymerization over time. Table 2 lists activities as the percentage of actin polymerization inhibition, compared to the negative vehicle control (DMSO), along with calculated IC50.
Pyrene-Actin Polymerization Assays. Actin polymerization assays were performed in accordance with the manufacturer's instructions (Cytoskeleton, Denver, Colo.). Briefly, […] final concentration of monomeric actin (1:10 pyrene labeled) was incubated on ice for 10 min with one of various concentrations of one of the latrunculin derivatives. Samples were then equilibrated 10 min in an ELISA plate reader (BioTek, VT), after which polymerization was induced by adding KCl, MgCl2, and ATP. Compounds 1-14 were tested at 0.1, 0.5, 1.0, and 10 μM. The IC50 for each compound was calculated using GraphPad Prism 5.0.
Pyrene-actin polymerization assays. Actin polymerization inhibitory activity is assessed using the Cytoskeleton Actin Polymerization kit (Cytoskeleton, Denver, Colo.). Briefly, […] (final concentration) of monomeric actin (1:10 pyrene labeled) is incubated on ice for 10 min with one of various concentrations of the test latrunculin compound. Samples are equilibrated 10 min in an ELISA plate reader (BioTek, VT), after which polymerization is induced by adding KCl, MgCl2, and ATP. Compounds are tested at 0.1, 0.5, 1.0, and 10 μM. The IC50 for each compound is calculated using GraphPad Prism 5.0.

[2] = test system: MCF7; assay: MTT proliferation assay, MCF7; type: cell-based, human
Description: (§1) The antiproliferative and anti-invasive activities of compounds 1-14 were quantified using MTT and cell invasion assay kits, respectively. Latrunculin A (compound 1) was used as a positive control in all biological assays, because it is known to be an actin polymerization inhibitor, with cytotoxic, antiproliferative, and anti-invasive activities. The 3-[4,5-dimethylthiazol-2-yl]-2,5-diphenyl tetrazolium bromide (MTT) assay selectively detects living cells in a quantitative, colorimetric fashion, based on a living cell's ability to reduce MTT to an insoluble, purple formazan dye. The MTT assay is routinely used to assess cytotoxicity and proliferation inhibition activities. The antiproliferative activities of compounds 1-14 were measured against two human mammary gland adenocarcinoma cell lines, MCF7 and MDA-MB-231, and against human prostate cancer cells PC-3 at five different doses (0.1, 0.5, 1, 10, and 50 μM). While many of the semisynthetic latrunculins had similar activity levels, some had greater activity than compound 1. […] Although the MDA-MB-231 cells were more resistant than MCF7 against most latrunculin derivatives tested, compound 14 had potent activity against both cell lines.
(§2) MTT Proliferation Assay. The growth of MCF7, MDA-MB-231, and PC-3 cancer cell lines was measured using an MTT kit (TACS™, TREVIGEN®, Inc.). Exponentially growing cells were plated in a 96-well plate at a density of 8×10^3 cells per well, and allowed to attach for 24 h. Complete growth medium was then replaced with 100 μL of RPMI serum-free medium containing various concentrations (50, 10, 1, 0.5, 0.1 μM) of the particular test compound. Culture continued at 37° C. under 5% CO2. After 72 h of culture, the cells were treated with MTT solution (10 μL/well) at 37° C. for 4 h. The color reaction was stopped by adding solubilization/stop solution (100 μL/well). Incubation continued at 37° C. continued to completely dissolve the formazan dye product. Absorbance of the samples was determined at 570 nm with an ELISA plate reader (BioTek, VT). The number of cells per well was calculated against a standard curve that had been prepared by plating various concentrations of cells, as determined by hemocytometer, at the start of each experiment. IC50 for each compound was calculated using a nonlinear regression curve fit of log concentration versus the number of cells/well, using GraphPad Prism 5.0 (GraphPad Software, La Jolla, Calif.).

[3] = test system: PC-3; assay: MTT proliferation assay, PC-3; type: cell-based, human
Description: as §1, §2

[4] = test system: MDA-MB-231; assay: MTT proliferation assay, MDA-MB-231; type: cell-based, human
Description: as §1, §2

[5] = test system: MDA-MB-231 cells; assay: Cultrex BME cell invasion assay; type: cell-based, human
Experimental: The anti-invasive activities of compounds 1-14 were measured using a 96 well basement membrane extract (BME) cell invasion assay kit against the highly metastatic MDA-MB-231 cells. This assay employs a simplified Boyden Chamber with a polyethylene terephthalate membrane (8 μm pore size). Cell invasion was quantified using calcein-acetomethylester (calcein-AM). Cells internalize calcein-AM; intracellular esterases then cleave the acetomethylester moiety to generate free calcein. Free calcein fluoresces brightly. This fluorescence may be used to quantify the number of cells that have invaded across the BME. To correlate the anti-invasive activities of the latrunculin A derivatives with their actin-disrupting activities, compounds 1-14 were each tested at non-toxic concentrations. […] Accordingly, all compounds were tested at 0.1, 0.5, and 1.0 μM. Compound 3 killed 17% of MDA-MB-231 cells at 1.0 μM, while the same dose of compound 3 inhibited 95% of MDA-MB-231 cells' invasion. […] The anti-invasive activities of compounds 1-14 are attributed primarily to the inhibition of actin polymerization, not to cell death per se.
Cultrex® Cell Invasion Assay. Anti-invasive activities were measured using Trevigen's Cultrex® Cell Invasion Assay as described in K. Tamilarasan et al., BMC Cell Biol. 2006, 7, 17-30; and P. Borghesani et al., Development. 2002, 6, 1435-1442. About 50 μL of basement membrane extract (BME) coat was added to each well. After incubation for 4 h at 37° C. under 5% CO2, 50,000 MDA-MB-231 cells in 50 μL of serum free RPMI medium were added to each well in the top chamber, along with the test compound at one of several concentrations (0.1, 0.5, 1 μM). About 150 μL of RPMI medium was added to the lower chamber in 10% FBS and penicillin/streptomycin, using fibronectin ([…]) and N-formyl-met-leu-phe (10 nM) as chemoattractants. Cells were allowed to migrate to the lower chamber at 37° C. under 5% CO2. After 24 h, the top and bottom chambers were aspirated and washed with the washing buffer that had been supplied with the kit. About 100 μL of Cell Dissociation Solution/Calcein-AM solution was added to the bottom chamber, and the cells were incubated at 37° C. under CO2 for 1 h. Briefly, the cells internalize calcein-AM, and then the intracellular esterases cleave the AM moiety to generate free calcein. […] The number of cells that had invaded through the BME coat was calculated using a standard curve.

[6] = test system: breast, CNS, colon, lung, melanoma, ovarian, and renal cancer cells; assay: Antiproliferative testing against 60 cell lines (NSC compounds); type: cell-based
[7] = test system: microvessel density marker CD31 in endothelial colony forming cells (ECFCs); assay: Angiogenesis inhibition assay (CD31 in ECFCs); type: cell-based
Experimental: Effects on Angiogenesis. Angiogenesis inhibition assays were conducted using endothelial colony forming cells (ECFCs). The microvessel density marker CD31 was quantified using confocal laser scanning microscopy and immunohistochemistry.

[8] = test system: alkaline phosphatase in C2C12 cells; assay: Alkaline phosphatase in C2C12 cells (Wnt pathway); type: cell-based
Description: (§3) Effects on Wnt/β-catenin. […] These two compounds affected both alkaline phosphatase and β-catenin levels in C2C12 cells.

[9] = test system: alkaline phosphatase in HuADSC cells; assay: Alkaline phosphatase in HuADSC cells; type: cell-based
[10] = test system: β-catenin in C2C12 cells; assay: Wnt/β-catenin signaling, β-catenin levels in C2C12 cells; type: cell-based
Description: as §3

[11] = test system: HeLa cells; assay: HeLa cell G2/M assays; type: cell-based; details: less active than compound 11
Description: This assay measures HeLa cell proliferation, apoptosis, DNA content and condensation, cyclin B, and phosphor-histone H3.

[12] = test system: array of kinases; assay: Kinase profiling; type: binding; details: any kinase tested
Experimental: Latrunculins B and H (compounds 20 and 14, respectively) were tested in a panel of assays including ApoE secretion, anti-angiogenesis, G2/M, Wnt pathway, insulin secretion, and an array of kinase profiling. The G2/M assays include HeLa cell proliferation, apoptosis, DNA content, and condensation, cyclin B, and phosphor-histone H3. […] Alkaline phosphatases may perhaps be a target of the anti-invasive latrunculin 11.

[13] = test system: prostate cancer cells PC-3M-CT+; details: 100 nM dose; without cytotoxicity; cited from earlier work

Compound: C/C1=C/C(=O)O[C@@H]2C[C@@H](CC[C@H](C)/C=C\C=C\CC1)O[C@@](OCCc1ccccc1)([C@@H]1CSC(=O)N1)C2 [Compound 3, 17-O-Phenylethyllatrunculin A]
- inhibition at 0.1 µM ([1]; 100 nM, compared to vehicle control (DMSO), read-out: Actin polymerization inhibition (%) 100 nM): 31%
- inhibition at 1 µM ([1]; 1 μM, compared to vehicle control (DMSO), read-out: Actin polymerization inhibition (%) 1 μM): 94%
- IC50 ([1]; mean ± SEM, triplicate): 184 ± 48 nM
- IC50 ([2]; Homo sapiens, MCF7, MTT, 72 h, mean ± SEM, read-out: IC50 (μM) MCF7): 0.1 ± 0.07 µM
- fold increase in activity against MCF7 versus compound 1 ([2]; relative to compound 1): 4.8 fold
- IC50 ([3]; Homo sapiens, PC-3, MTT, 72 h, read-out: IC50 (μM) PC-3): 1.22 µM
- fold increase in activity against PC-3 versus compound 1 ([3]; relative to compound 1): 3.2 fold
- MDA-MB-231 cells killed ([4]; 1.0 μM): 17%
- IC50 ([4]; Homo sapiens, MDA-MB-231, MTT, 72 h, mean ± SEM, read-out: IC50 (μM) MDA-MB-231): 2.71 ± 0.52 µM
- fold more active against cell invasion than latrunculin A (compound 1) ([5]; 0.5 μM): 3.3 fold
- inhibition at 1 µM ([5]; Homo sapiens, MDA-MB-231, 1.0 μM): 95%
- number of the 60 cell lines tested with antiproliferative activity ([6]; dose of 10 μM): 18
- log10GI50 ([6]; five-points dose-response, range over active cell lines): −7.02 to −7.90

Compound: C/C1=C/C(=O)O[C@@H]2C[C@@H](CC[C@H](C)/C=C\CC1)O[C@@](O)([C@@H]1CSC(=O)N1)C2 [Compound 20, latrunculin B]
- inhibition of CD31 in ECFCs ([7]; 2 μM): 100%
- inhibition of CD31 in ECFCs ([7]; 10 μM): 100%
- IC50 ([7]; read-out: IC50 CD31 in ECFCs): 43 nM
- EC50 [8]: 91 nM
- EC50 [9]: 141 nM
- Wnt/β-catenin signaling [10]: strongly inhibited
- activity in G2_M assays compared with nocodazole [11]: greater activity than did nocodazole
- affinity toward kinases [12]: Neither compound 20 nor compound 14 showed affinity toward any kinase tested

Compound: latrunculin A 17-O-phenyl carbamate [Compound 18]
- migration of PC-3M-CT+ cells [13]: inhibits the migration

— US20110136880A1, “Latrunculin-Based Macrolides and Their Uses” (priority 2009, published 2011)
